Measured values from ChEMBL document CHEMBL1152408, “Characterization of a Dispiroketal Spirolide Subclass from Alexandrium ostenfeldii” (J Nat Prod, 2009).

Tests used:
Assay type in all cases: organism-based
[1] = tested on: Mus musculus; assay: Toxicity in ip dosed mouse; conditions: in vivo
[2] = tested on: Mus musculus; assay: Toxicity in ip dosed mouse assessed as transient hunching up to 2000 ug/kg; conditions: in vivo, 2 mg/kg
[3] = tested on: Mus musculus; assay: Toxicity in ip dosed mouse assessed as transient lethargy up to 2000 ug/kg; conditions: in vivo, 2 mg/kg

| Structure (SMILES) | LD50 [1] | Activity [2] | Activity [3] |
| --- | --- | --- | --- |
| C=C1CCCC2=NC[C@H](C)[C@@H](C)C[C@@]23CCC([C@@H]2C=C(C)C(=O)O2)=C(C)[C@@H]3/C=C(\C)CC[C@@H]2CC[C@]3(COC[C@]4(O[C@H]1CC[C@@]4(C)O)[C@@H]3O)O2 | 6.9 µg/kg |  |  |
| C=C1CCCC2=NC[C@H](C)[C@@H](C)C[C@@]23CCC([C@@H]2C=C(C)C(=O)O2)=C(C)[C@@H]3/C=C(\C)[C@@H](O)C[C@@H]2CC[C@@]3(CC[C@@]4(O[C@@H](CC[C@@]4(C)O)C1)O3)O2 | 6.9 µg/kg |  |  |
| C=C1CCCC2=NC[C@H](C)CC[C@@]23CCC([C@@H]2C=C(C)C(=O)O2)=C(C)[C@@H]3/C=C(\C)[C@@H](O)C[C@H]2O[C@]3(CC[C@@]4(O[C@@H](CC[C@@]4(C)O)C1)O3)C[C@H]2C [SPIROLIDE A] | 6.9 µg/kg |  |  |
| C=C1CCCC2=NC[C@H](C)CC[C@@]23CCC([C@@H]2CC(C)C(=O)O2)=C(C)[C@@H]3/C=C(\C)[C@@H](O)C[C@H]2O[C@]3(CC[C@@]4(O[C@@H](CC[C@@]4(C)O)C1)O3)C[C@H]2C (some centres not stated) [SPIROLIDE B] | 6.9 µg/kg |  |  |
| C=C1CCCC2=NC[C@H](C)[C@@H](C)C[C@@]23CCC([C@@H]2C=C(C)C(=O)O2)=C(C)[C@@H]3/C=C(\C)[C@@H](O)C[C@H]2O[C@]3(CC[C@@]4(O[C@@H](CC[C@@]4(C)O)C1)O3)C[C@H]2C [SPIROLIDE C] | 6.9 µg/kg |  |  |
| C=C1CCCC2=NC[C@H](C)[C@@H](C)C[C@@]23CCC([C@@H]2C=C(C)C(=O)O2)=C(C)[C@@H]3/C=C(\C)[C@@H](O)C[C@H]2O[C@@]3(C[C@H]2C)O[C@@H](CC[C@@]3(C)O)C1 [Spirolide H] |  | Non-toxic | Non-toxic |
